The test deals with Guinea Pig Ileum. Briefly: Guinea pig ileum assay - tonic contraction (K+-induced contraction of longitudinal muscle; calcium channel blocking activity). The test is classed as cell-based. As to conditions: Cavia porcellus. As for the experimental part:
GUINEA PIG ILEUM ASSAY--TONIC CONTRACTION
Male guinea-pigs weighing from 300-400 grams were stunned and bled. The abdomen was opened and 10-15 cm of terminal ileum was carefully removed and cleaned and placed in Tyrode's Solution of the following composition: NaCl (8 g/l), KCl (0.2 g/l), MgCl2 (0.2 g/l.), CaCl2 (0.2 g/l), NaH2 PO4 (0.05 g/l), NaHCO3 (1.0 g/l) and Glucose (1 g/l). The solution was maintained at 37° C. and gassed with 95% O2 and 5% CO2. Portions of the ileum were placed over a glass rod, a shallow incision was made the length of the mesenteric attachment just severing the outer-longitudinal muscle layer. The longitudinal muscle was separated from the underlying circular muscle by gentle dissection (Rang, H. P. Annals of N.Y. Academy of Science Vol. 144, page 756, (1964)). The tissue was fixed at one end to a tissue holder, the other end was connected by a thread to a force transducer and suspended in a muscle bath containing Tyrode's Solution maintained at 37° C. and gassed with 95% O2 and 5% CO2. An initial tension of 500 mg was applied and the tissue allowed to equilibrate for 60 minutes prior to the start of the study. During this period the tissue was washed every 16 minutes. Each preparation, at 16 minute intervals, was challenged with KCl sufficient to yield a bath K^+ concentration of 80 mMK for 2 minutes, then washed with fresh solution. The 16 minute interval between K^+ challenges was maintained throughout the study. Upon stabilization of the responses to the K^+ challenge the test compound (potential calcium entry antagonist) was introduced into the bath 2 minutes prior to and during the 2 minute exposure to K^+ after which the bath was cleared and washed with fresh solution. Logarithmically increasing doses (up to 10^-4 M) of the potential antagonist were administered as the study progressed.
The measure of compound's ability to inhibit the tonic contraction of muscle is a measure of its activity as a calcium channel blocking agent.

Counter-ions that a name gives are not always drawn.

Usually IC50 stands for the concentration that inhibits the measured activity by half.

Consider `COc1ccc([C@@H]2Sc3ccc4ccccc4c3N(CCN(C)C)C(=O)[C@@H]2O)cc1` (relative stereo) [A, cis-rac-2,3-dihydro-3-hydroxy-5-[2-(dimethylamino)ethyl]-2-(4-methoxyphenyl)naphtho[2,1-b][1,4]thiazepin-4(5H)-one hydrochloride], for which the IC50 was found to be 400 nM.

For the compound `COc1ccc([C@@H]2Sc3ccc4ccccc4c3N(CCN(C)C)C(=O)[C@@H]2OC(C)=O)cc1` (relative stereo) [B, cis-rac-3-(acetyloxy)-2,3-dihydro-5-[2-(dimethylamino)ethyl]-2-(4-methoxyphenyl)naphtho[2,1-b][1,4]thiazepin-4(5H)-one (E)-2-butendioate], the IC50 stood at 450 nM.

Take `COc1ccc([C@@H]2Sc3ccc4ccccc4c3N(CCN(C)C)C(=O)[C@@H]2O)cc1` [C, cis-(+)-2,3-dihydro-3-hydroxy-5-[2-(dimethylamino)ethyl]-2-(4-methoxyphenyl)naphtho[2,1-b][1,4]thiazepin-4(5H)-one hydrochloride semihydrate]: the IC50 was determined as 230 nM.

As for `COc1ccc([C@@H]2Sc3ccc4ccccc4c3N(CCN(C)C)C(=O)[C@@H]2OC(C)=O)cc1` [D, cis-(+)-3-(acetyloxy)-2,3-dihydro-5-[2-(dimethylamino)ethyl]-2-(4-methoxyphenyl)naphtho[2,1-b][1,4]thiazepin-4(5H)-one (E)-2-butendioate], the IC50 amounted to 390 nM.
